In US11013722B2, “Therapeutic agent for dyslipidemia” (KOWA COMPANY, LTD., priority 2012, dated 2021):

How the values were obtained:
[1] = test system: High-Cholesterol Diet-Fed Rats; test: Example 1: combined effect of compound A and ezetimibe, plasma HDL-C; type: in vivo, SD rats; details: for HDL-C Ave.: plasma, oral once a day, one week; for HDL-C Rate of Change: vs control
Experimental: The synergistic effect was determined by using Burgi's formula (if the relative level in the combined group is larger than the value of the product of the relative level of single agent A and the relative level of single agent B, the synergistic effect is positive).
(§1) Group 2: Compound A 0.1 mg/kg
Group 3: Ezetimibe 0.003 mg/kg
Group 4: Compound A 0.1 mg/kg and ezetimibe 0.003 mg/kg
(§2) The results were shown as the mean±standard deviation.

[2] = test system: High-Cholesterol Diet-Fed Rats; test: Example 2: combined effect of compound A and ezetimibe, plasma TC and lipoprotein cholesterol; type: in vivo, SD rats
Experimental: The synergistic effect was determined by using Burgi's formula (in a case where a level lower than that in the control group is indicated in a drug administration group, that is, when the evaluation of an agent to the TC, VLDL-C, or LDL-C is performed, if the relative level in the combined group is smaller than the value of the product of the relative level of single agent A and the relative level of single agent B, the synergistic effect exists. In a case where a level higher than that in the control group is indicated in a drug administration group, that is, when the evaluation of an agent to the HDL-C is performed, if the relative level in the combined group is larger than the value of the product of the relative level of single agent A and the relative level of single agent B, the synergistic effect exists).
as §1
Group 3: Ezetimibe 0.01 mg/kg […]
Group 5: Ezetimibe 0.1 mg/kg […]
as §2

| SMILES | Effect on HDL-C level ([1]; Compound A 0.1 mg/kg alone) | HDL-C relative level to the control group ([1]; Compound A 0.1 mg/kg alone) | HDL-C Ave. ([1]; Compound A 0.1 mg/kg alone) | HDL-C Rate of Change ([1]; Compound A 0.1 mg/kg alone) [%] | HDL-C Relative Level (to Control) ([2]; Compound A 0.1 mg/kg alone) | LDL-C Relative Level (to Control) ([2]; Compound A 0.1 mg/kg alone) | TC Relative Level (to Control) ([2]; Compound A 0.1 mg/kg alone) | VLDL-C Relative Level (to Control) ([2]; Compound A 0.1 mg/kg alone) | Effect on HDL-C level ([1]; Ezetimibe 0.003 mg/kg alone) | HDL-C relative level to the control group ([1]; Ezetimibe 0.003 mg/kg alone) | HDL-C Ave. ([1]; Ezetimibe 0.003 mg/kg alone) | HDL-C Rate of Change ([1]; Ezetimibe 0.003 mg/kg alone) [%] | HDL-C Relative Level (to Control) ([2]; Ezetimibe 0.01 mg/kg alone) | LDL-C Relative Level (to Control) ([2]; Ezetimibe 0.01 mg/kg alone) | TC Relative Level (to Control) ([2]; Ezetimibe 0.01 mg/kg alone) | VLDL-C Relative Level (to Control) ([2]; Ezetimibe 0.01 mg/kg alone) | HDL-C Relative Level (to Control) ([2]; Ezetimibe 0.1 mg/kg alone) | LDL-C Relative Level (to Control) ([2]; Ezetimibe 0.1 mg/kg alone) | TC Relative Level (to Control) ([2]; Ezetimibe 0.1 mg/kg alone) | VLDL-C Relative Level (to Control) ([2]; Ezetimibe 0.1 mg/kg alone) |
| --- | --- | --- | --- | --- | --- | --- | --- | --- | --- | --- | --- | --- | --- | --- | --- | --- | --- | --- | --- | --- |
| CC[C@@H](Oc1cccc(CN(CCCOc2ccc(OC)cc2)c2nc3ccccc3o2)c1)C(=O)O [Compound A, (R)-2-[3-[[N-(benzoxazol-2-yl)-N-3-(4-methoxyphenoxy)propyl]aminomethyl]phenoxy]butyric acid] | apparent effects were not recognized | 1.010 | 24.3 | 1.0 | 1.021 | 0.971 | 0.956 | 0.827 |  |  |  |  |  |  |  |  |  |  |  |  |
| O=C1[C@H](CC[C@H](O)c2ccc(F)cc2)[C@@H](c2ccc(O)cc2)N1c1ccc(F)cc1 [Ezetimibe, (3R,4S)-1-(4-fluorophenyl)-3-{(3S)-3-(4-fluorophenyl)-3-hydroxypropyl}-4-(4-hydroxyphenyl)azetidin-2-one] |  |  |  |  |  |  |  |  | apparent effects were not recognized | 1.022 | 24.6 | 2.2 | 0.910 | 0.955 | 0.898 | 0.719 | 1.100 | 0.720 | 0.555 | 0.262 |
